Read-outs that look alike come from different tables or passages of the source.
Key:
[1] = tested on: S. aureus COL; experiment: MIC reduction assay (antibiotic adjuvant), S. aureus COL; format: cell-based, Staphylococcus aureus; settings: ampicillin
Description: The adjuvant properties of compounds 14–16 in S. aureus clinical isolates were next tested in combination with oxacillin and the penicillinase-susceptible β-lactam antibiotic, ampicillin. The second β-lactam antibiotic was chosen based on its vulnerability to enzymatic hydrolysis, another important resistance mechanism in S. aureus against penicillin. Therefore, the results of the MIC reduction assay obtained on the activity of arylideneimidazolones combined with oxacillin and ampicillin, respectively, might provide further insights into the possible mechanism of action of the compounds. Complete results are presented in Supplementary (Tables S4 and S5), while condensed in Figure 6, in the case of desired activity noted. […] One possible explanation for the lack of adjuvant activity of compounds in some of the strains selected for this study might be that these strains express PBP2a only when induced by the antibiotic, while others, for which potentiating activity of compounds was observed, produce this protein in high levels straight away. […]
(§1) Initially, MICs of a series of imidazolone derivatives were assessed against susceptible (reference) and MDR strains of staphylococci. Next, MIC values of the aforementioned antibiotics were determined in the absence and presence of imidazolone derivatives to assess the chemosensitizing effect of these compounds. […] Antibacterial activity of compounds and antibiotics ampicillin, vancomycin, ciprofloxacin, and erythromycin was recorded as the lowest concentration of molecules able to inhibit bacterial growth after 18 h incubation at 37 °C. […] The results are presented as activity gain (A) parameter which was calculated as ratio of MIC of a certain antibiotic (MICAnt) to its MICAnt+Comp, observed in combination with a tested compound (7, 12–16, 19, or 20; Equation (1)). […]

[2] = tested on: S. aureus LG-N017; experiment: MIC reduction assay (antibiotic adjuvant), S. aureus LG-N017; format: cell-based, Staphylococcus aureus
Description: The adjuvant properties of compounds 14–16 in S. aureus clinical isolates were next tested in combination with oxacillin and the penicillinase-susceptible β-lactam antibiotic, ampicillin. The second β-lactam antibiotic was chosen based on its vulnerability to enzymatic hydrolysis, another important resistance mechanism in S. aureus against penicillin. Therefore, the results of the MIC reduction assay obtained on the activity of arylideneimidazolones combined with oxacillin and ampicillin, respectively, might provide further insights into the possible mechanism of action of the compounds. Complete results are presented in Supplementary (Tables S4 and S5), while condensed in Figure 6, in the case of desired activity noted. […] One possible explanation for the lack of adjuvant activity of compounds in some of the strains selected for this study might be that these strains express PBP2a only when induced by the antibiotic, while others, for which potentiating activity of compounds was observed, produce this protein in high levels straight away.
(§2) Determination of MIC values, i.e., intrinsic antibacterial activity, of products and antibiotics (oxacillin, ampicillin, vancomycin, ciprofloxacin, and erythromycin) in the presence and absence of compounds tested was conducted by the use of a standard 2-fold microdilution method in cation-adjusted Mueller Hinton broth following the Clinical and Laboratory Standards Institute (CLSI) guidelines. The MIC values were detected using an Infinite M200 pro Tecan microplate reader (Tecan® France, SA-Lyon, France). MIC determinations were conducted in 96-well microtiter plates and repeated 3–4 times.
Initially, MICs of a series of imidazolone derivatives were assessed against susceptible (reference) and MDR strains of staphylococci. Next, MIC values of the aforementioned antibiotics were determined in the absence and presence of imidazolone derivatives to assess the chemosensitizing effect of these compounds. […] 5-arylideneimidazolones and 5-arylidenethiazolones, which precipitated after addition to bacterial suspension in MH II medium, were tested at the highest concentrations at which precipitation was not observed. […] Antibacterial activity of compounds and antibiotics ampicillin, vancomycin, ciprofloxacin, and erythromycin was recorded as the lowest concentration of molecules able to inhibit bacterial growth after 18 h incubation at 37 °C. The incubation of bacterial strains exposed to oxacillin paired with compounds tested was conducted at 35 °C and extended to 24 h due to frequent occurrence of heterogeneity among MRSA strains. The results are presented as activity gain (A) parameter which was calculated as ratio of MIC of a certain antibiotic (MICAnt) to its MICAnt+Comp, observed in combination with a tested compound (7, 12–16, 19, or 20; Equation (1)). (1) A=(MICAnt/MICAnt+Comp)

[3] = tested on: S. aureus Mu50; experiment: MIC of compounds, S. aureus Mu50; format: cell-based; settings: Staphylococcus aureus; Mu50 (VISA)
Procedure: Compounds 14–16 were tested further for their adjuvant-like effect with a set of ten additional S. aureus isolates. Firstly, MIC values of the molecules were evaluated in two clinical MSSA isolates (MM-O058, MM-N072), seven MRSA (USA300 LAC, 5328, LG-N017, MM-O021, R45-CC45, R46-CC22, COL) and one VISA strain (Mu50). Detailed results are presented in the Supplementary section (Table S3). […]
as §1

[4] = tested on: S. aureus R45-CC45; experiment: MIC of compounds, S. aureus R45-CC45; format: cell-based; settings: Staphylococcus aureus, read-out: MIC value of compounds
Procedure: Compounds 14–16 were tested further for their adjuvant-like effect with a set of ten additional S. aureus isolates. Firstly, MIC values of the molecules were evaluated in two clinical MSSA isolates (MM-O058, MM-N072), seven MRSA (USA300 LAC, 5328, LG-N017, MM-O021, R45-CC45, R46-CC22, COL) and one VISA strain (Mu50). Detailed results are presented in the Supplementary section (Table S3).
as §2
as §1, with “compounds. […] 5-arylideneimidazolones and 5-arylidenethiazolones, which precipitated after addition to bacterial suspension in MH II medium, were tested at the highest concentrations at which precipitation was not observed.” for “compounds.”

[5] = target: CYP3A4 (Homo sapiens, UniProt P08684); experiment: Luminescent CYP3A4 P450-Glo assay
Procedure: The luminescent CYP3A4 P450-Glo™ assay was carried out according to a protocol described previously (Promega, Madison, WI, USA). […] Performance of enzymatic reaction was carried out in white polystyrene, flat-bottom Nunc™ MicroWell™ 96-Well Microplate (Thermo Scientific Waltham, MA, USA) and the result was measured with a microplate reader EnSpire in luminescence mode (PerkinElmer, Waltham, MA USA). IC50 values were calculated using GraphPad Prism™ software (version 5.01, San Diego, CA, USA). Compounds 15 and 19 were tested at concentrations from 0.01 μM to 25 μM.

[6] = Stability in acidic and basic conditions (TLC); format: physicochemical; settings: for Number of TLC spots: 1 = stable
Procedure: Compounds 9–12, 15, and 19 were also tested for their stability in acidic and basic conditions. This assay was carried out for 48 h and samples were taken at six-time intervals (10 min, 1 h, 2 h, 3 h, 24 h, 48 h). Stability of the compounds was determined using the TLC method. […] In basic conditions, only compounds 10 and 15 were stable for 24 h. […] Results with details, including time of degradation of products obtained, are presented in the Supplementary (Tables S19 and S20). […]
VI. Stability in different pH conditions
Stability of chosen compounds (9-12, 15, and 19) were determined using the TLC method. Assays were performed in acidic and basic conditions and were carried out for 48 h. Samples were taken at six-time intervals (10 min., 1 h, 2 h, 3 h, 24 h, 48 h). […]
of spots observed on TLC, where 1 indicate that compound is stable (only TLC spot for proper compound was observed). Higher values point out how many products of degradation was observed, which can be calculating by subtracting one from number of spots.
Table S19. Results of chosen compounds (9-12, 15, 19) stability in acidic conditions.
Compound Number of TLC spots in defined time
Table S20. Results of chosen compounds (9-12, 15, 19) stability in basic conditions.

Sequence of CYP3A4 (P08684 whole entry): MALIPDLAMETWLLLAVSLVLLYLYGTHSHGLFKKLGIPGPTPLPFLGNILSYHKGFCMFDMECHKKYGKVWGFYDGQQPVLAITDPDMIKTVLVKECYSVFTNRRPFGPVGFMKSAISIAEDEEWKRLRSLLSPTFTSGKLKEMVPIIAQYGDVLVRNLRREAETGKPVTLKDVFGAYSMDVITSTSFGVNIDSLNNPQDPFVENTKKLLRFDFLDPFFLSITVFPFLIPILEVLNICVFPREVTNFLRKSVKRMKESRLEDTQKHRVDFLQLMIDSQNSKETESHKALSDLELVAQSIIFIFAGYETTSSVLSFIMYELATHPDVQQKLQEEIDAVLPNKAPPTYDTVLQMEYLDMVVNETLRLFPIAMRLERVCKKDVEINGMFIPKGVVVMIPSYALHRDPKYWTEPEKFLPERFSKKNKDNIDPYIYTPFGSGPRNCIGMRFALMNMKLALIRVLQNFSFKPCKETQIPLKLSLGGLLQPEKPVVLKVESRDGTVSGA

SMILES	A (activity gain) [1]	A (activity gain) ([2]; ampicillin)	A (activity gain) ([2]; erythromycin)	MIC [3] [µM]	MIC ([4]; R45-CC45 (MRSA)) [µM]	IC50 [5] [µM]	Number of TLC spots ([6]; acidic conditions, 10 min)	Number of TLC spots ([6]; acidic conditions, 1 h)	Number of TLC spots ([6]; acidic conditions, 2 h)	Number of TLC spots ([6]; acidic conditions, 3 h)	Number of TLC spots ([6]; acidic conditions, 24 h)	Number of TLC spots ([6]; acidic conditions, 48 h)	Number of TLC spots ([6]; basic conditions, 10 min)	Number of TLC spots ([6]; basic conditions, 1 h)	Number of TLC spots ([6]; basic conditions, 2 h)	Number of TLC spots ([6]; basic conditions, 3 h)	Number of TLC spots ([6]; basic conditions, 24 h)	Number of TLC spots ([6]; basic conditions, 48 h)	other results
NC1=N/C(=C\c2ccc(-c3ccccc3)cc2)C(=O)N1CCN1CCOCC1 [Compound 14]	1	2	1	≥ 500	≥ 500														
NC1=N/C(=C\c2ccc(-c3ccccc3)cc2)C(=O)N1CCCN1CCOCC1 [Compound 15]	1	1	1	250		> 25	2	2	2	2	2	2	1	1	1	1	1	2	inhibition at 25 µM ([5]; human): < 50%; MIC ([4]; MRSA): 125 to 250 µM; time stable ([6]; basic conditions): 24 h
NC1=N/C(=C\c2cccc(Oc3ccccc3)c2)C(=O)N1CCCN1CCOCC1 [Compound 16]	1	1	1		250														
NC1=N/C(=C\c2ccc3c(c2)Cc2ccccc2-3)C(=O)N1CCCN1CCOCC1 [Compound 19]						24.9	1	1	1	2	2	3	4	4	4	4	4	4	

Reference: article PMC7922564, “Molecular Insights into an Antibiotic Enhancer Action of New Morpholine-Containing 5-Arylideneimidazolones in the Fight against MDR Bacteria” (International Journal of Molecular Sciences, 2021)
